Starred links: 1 amine or outer side, 2 acyl side, 3 side chain; linkers in the order of their positions; H or OH if unused. Non-standard residues stand in square brackets, D forms with d. Residues, ends and D or L forms follow the SMILES beside them. Phe(4-(trans-4-COOH-cHex)) = N[C@@H](Cc1ccc([C@H]2CC[C@H](C(=O)O)CC2)cc1)C(=O)O; Phe(4-(cis-4-COOH-cHex)) = N[C@@H](Cc1ccc([C@H]2CC[C@@H](C(=O)O)CC2)cc1)C(=O)O; Phe(4-(5-CO2H-2-pyrimidyl)) = N[C@@H](Cc1ccc(-c2ncc(C(=O)O)cn2)cc1)C(=O)O; Trp(βS-Me,4-F) = C[C@@H](c1c[nH]c2cccc(F)c12)[C@H](N)C(=O)O; 3Aminoazetidine3carboxyl = O=C(C1(N[*:1])CN([*:3])C1)[*:2]; Bip(4'-COOH) = N[C@@H](Cc1ccc(-c2ccc(C(=O)O)cc2)cc1)C(=O)O; dPro(4R-Bzl(4-F)) = O=C(O)[C@H]1C[C@@H](Cc2ccc(F)cc2)CN1; X14 = O=C([C@H]1[C@@H](Cc2ccccc2)CCN1[*:1])[*:2]; X9 = O=C([C@H]1[C@@H](Cc2cncnc2)CCN1[*:1])[*:2]; Ala(pyrimidin-5-yl) = N[C@@H](Cc1cncnc1)C(=O)O; Phe(4-COOH) = N[C@@H](Cc1ccc(C(=O)O)cc1)C(=O)O; Pro(cis-4-F) = O=C(O)[C@@H]1C[C@H](F)CN1; AEF = NCCOc1ccc(C[C@H](N)C(=O)O)cc1; 2Pal = N[C@@H](Cc1ccccn1)C(=O)O; 3Pal = N[C@@H](Cc1cccnc1)C(=O)O; 4Pal = N[C@@H](Cc1ccncc1)C(=O)O; αMeK = C[C@](N)(CCCCN)C(=O)O; Dab = NCC[C@H](N)C(=O)O; Aib = CC(C)(N)C(=O)O

T1 sequence (P01584 117-269): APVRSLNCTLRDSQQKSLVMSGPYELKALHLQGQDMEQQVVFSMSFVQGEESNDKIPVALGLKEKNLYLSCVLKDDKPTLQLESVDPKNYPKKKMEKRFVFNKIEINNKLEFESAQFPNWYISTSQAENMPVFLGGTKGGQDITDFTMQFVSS

The test addresses T1, IL-1β (Homo sapiens, UniProt P01584).
T1 construct: purchased BioLegend 579404
The test is described as follows: IL-6 assay in MRC5 cells: inhibition of IL-1β induced IL-6 secretion (AlphaLISA). As to conditions: inhibition of IL-1β induced IL-6 secretion in MRC5 cells; read-out: MRC5 IC50. Type of test: cell-based. An outline of the steps:
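Compound was pre-incubated 1 h at ambient temperature with recombinant human IL-1β at 2λ EC80 before adding human lung fibroblast MRC5 cells (3000/well) in EMEM with 0.025% BSA. After overnight culture at 37 °C, 5% CO2, secreted IL-6 in conditioned medium was measured by AlphaLISA; IC50 from 4-parameter logistic fits.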
On to `C[C@@H](c1c[nH]c2cccc(F)c12)[C@@H]1NC(=O)[C@@H]2C[C@H](F)CN2C(=O)CNC(=O)[C@H](Cc2ccc(C(=O)O)cc2)NC(=O)[C@H](Cc2ccncc2)NC(=O)[C@H](Cc2ccc(-c3ccc(C(=O)O)cc3)cc2)NC(=O)[C@H]2C[C@@H](Cc3ccc(F)cc3)CN2C(=O)CNC(=O)[C@H](CCN)NC(=O)[C@H](CCC(N)=O)NC(=O)[C@H](Cc2cncnc2)NC(=O)[C@](C)(CCCCN)NC(=O)[C@H](Cc2c[nH]c3ccccc23)NC(=O)[C@H](CCC(=O)O)NC(=O)C(C)(C)NC1=O` [Example 67] (cyclo([4Pal][Phe(4-COOH)]G[Pro(cis-4-F)][Trp(βS-Me,4-F)][Aib]EW[αMeK][Ala(pyrimidin-5-yl)]Q[Dab]G[dPro(4R-Bzl(4-F))][Bip(4'-COOH)])), for which the IC50 was found to be 0.021 nM.
The value for `C[C@@H](c1c[nH]c2cccc(F)c12)[C@@H]1NC(=O)[C@@H]2C[C@H](F)CN2C(=O)CNC(=O)[C@H](Cc2ccc(C(=O)O)cc2)NC(=O)[C@H](Cc2ccncc2)NC(=O)[C@H](Cc2ccc([C@H]3CC[C@H](C(=O)O)CC3)cc2)NC(=O)[C@H]2C[C@@H](Cc3ccc(F)cc3)CN2C(=O)CNC(=O)[C@H](CCN)NC(=O)[C@H](CCC(N)=O)NC(=O)[C@H](Cc2cncnc2)NC(=O)C2(CNC2)NC(=O)[C@H](Cc2c[nH]c3ccccc23)NC(=O)[C@H](CCC(=O)O)NC(=O)C(C)(C)NC1=O` [Example 68] (cyclo([Phe(4-(trans-4-COOH-cHex))][4Pal][Phe(4-COOH)]G[Pro(cis-4-F)][Trp(βS-Me,4-F)][Aib]EW[3Aminoazetidine3carboxyl][Ala(pyrimidin-5-yl)]Q[Dab]G[dPro(4R-Bzl(4-F))])) was 0.029 nM; that for `C[C@@H](c1c[nH]c2cccc(F)c12)[C@@H]1NC(=O)[C@@H]2C[C@H](F)CN2C(=O)CNC(=O)[C@H](Cc2ccc(C(=O)O)cc2)NC(=O)[C@H](Cc2ccncc2)NC(=O)[C@H](Cc2ccc([C@H]3CC[C@@H](C(=O)O)CC3)cc2)NC(=O)[C@H]2C[C@@H](Cc3ccc(F)cc3)CN2C(=O)CNC(=O)[C@H](CCN)NC(=O)[C@H](CCC(N)=O)NC(=O)[C@H](Cc2cncnc2)NC(=O)C2(CNC2)NC(=O)[C@H](Cc2c[nH]c3ccccc23)NC(=O)[C@H](CCC(=O)O)NC(=O)C(C)(C)NC1=O` [Example 69] (cyclo([Phe(4-(cis-4-COOH-cHex))][4Pal][Phe(4-COOH)]G[Pro(cis-4-F)][Trp(βS-Me,4-F)][Aib]EW[3Aminoazetidine3carboxyl][Ala(pyrimidin-5-yl)]Q[Dab]G[dPro(4R-Bzl(4-F))])) was 0.03 nM.
The value for `C[C@@H](c1c[nH]c2cccc(F)c12)[C@@H]1NC(=O)[C@@H]2C[C@H](F)CN2C(=O)CNC(=O)[C@H](Cc2ccc(C(=O)O)cc2)NC(=O)[C@H](Cc2ccncc2)NC(=O)[C@H](Cc2ccc(-c3ccc(C(=O)O)cc3)cc2)NC(=O)[C@H]2[C@@H](Cc3cncnc3)CCN2C(=O)CNC(=O)[C@H](CCN)NC(=O)[C@H](CCC(N)=O)NC(=O)[C@H](Cc2cncnc2)NC(=O)C(C)(C)NC(=O)[C@H](Cc2c[nH]c3ccccc23)NC(=O)[C@H](CCC(=O)O)NC(=O)C(C)(C)NC1=O` [Example 71] (cyclo([Bip(4'-COOH)][4Pal][Phe(4-COOH)]G[Pro(cis-4-F)][Trp(βS-Me,4-F)][Aib]EW[Aib][Ala(pyrimidin-5-yl)]Q[Dab]G[X9])) was 0.058 nM; that for `C[C@@H](c1c[nH]c2cccc(F)c12)[C@@H]1NC(=O)[C@@H]2C[C@H](F)CN2C(=O)CNC(=O)[C@H](Cc2ccc(C(=O)O)cc2)NC(=O)[C@H](Cc2ccncc2)NC(=O)[C@H](Cc2ccc(-c3ccc(C(=O)O)cc3)cc2)NC(=O)[C@H]2C[C@@H](Cc3ccc(F)cc3)CN2C(=O)CNC(=O)[C@H](CCN)NC(=O)[C@H](CCC(N)=O)NC(=O)[C@H](Cc2cccnc2)NC(=O)C(C)(C)NC(=O)[C@H](Cc2c[nH]c3ccccc23)NC(=O)[C@H](CCC(=O)O)NC(=O)C(C)(C)NC1=O` [Example 72] (cyclo([3Pal]Q[Dab]G[dPro(4R-Bzl(4-F))][Bip(4'-COOH)][4Pal][Phe(4-COOH)]G[Pro(cis-4-F)][Trp(βS-Me,4-F)][Aib]EW[Aib])) was 0.027 nM; that for `C[C@@H](c1c[nH]c2cccc(F)c12)[C@@H]1NC(=O)[C@@H]2C[C@H](F)CN2C(=O)CNC(=O)[C@H](Cc2ccc(C(=O)O)cc2)NC(=O)[C@H](Cc2ccncc2)NC(=O)[C@H](Cc2ccc(-c3ccc(C(=O)O)cc3)cc2)NC(=O)[C@H]2C[C@@H](Cc3ccc(F)cc3)CN2C(=O)CNC(=O)[C@H](CCN)NC(=O)[C@H](CCC(N)=O)NC(=O)[C@H](Cc2ccccn2)NC(=O)C(C)(C)NC(=O)[C@H](Cc2c[nH]c3ccccc23)NC(=O)[C@H](CCC(=O)O)NC(=O)C(C)(C)NC1=O` [Example 73] (cyclo([Bip(4'-COOH)][4Pal][Phe(4-COOH)]G[Pro(cis-4-F)][Trp(βS-Me,4-F)][Aib]EW[Aib][2Pal]Q[Dab]G[dPro(4R-Bzl(4-F))])) was 0.031 nM.
The value for `C[C@@H](c1c[nH]c2cccc(F)c12)[C@@H]1NC(=O)[C@@H]2C[C@H](F)CN2C(=O)CNC(=O)[C@H](Cc2ccc(C(=O)O)cc2)NC(=O)[C@H](Cc2ccncc2)NC(=O)[C@H](Cc2ccc(-c3ccc(C(=O)O)cc3)cc2)NC(=O)[C@H]2C[C@@H](Cc3ccc(F)cc3)CN2C(=O)CNC(=O)[C@H](CCCNC(=N)N)NC(=O)[C@H](CCC(N)=O)NC(=O)[C@H](Cc2ccncc2)NC(=O)C(C)(C)NC(=O)[C@H](Cc2c[nH]c3ccccc23)NC(=O)[C@H](CCC(=O)O)NC(=O)C(C)(C)NC1=O` [Example 76] (cyclo([Bip(4'-COOH)][4Pal][Phe(4-COOH)]G[Pro(cis-4-F)][Trp(βS-Me,4-F)][Aib]EW[Aib][4Pal]QRG[dPro(4R-Bzl(4-F))])) was 0.059 nM; that for `CC(=O)NCCOc1ccc(C[C@@H]2NC(=O)[C@H]3[C@@H](Cc4ccccc4)CCN3C(=O)CNC(=O)[C@H](CCN)NC(=O)[C@H](CCC(N)=O)NC(=O)[C@H](Cc3cncnc3)NC(=O)C(C)(C)NC(=O)[C@H](Cc3c[nH]c4ccccc34)NC(=O)[C@H](CCC(=O)O)NC(=O)C(C)(C)NC(=O)[C@H]([C@@H](C)c3c[nH]c4cccc(F)c34)NC(=O)[C@@H]3C[C@H](F)CN3C(=O)CNC(=O)[C@H](Cc3ccc(C(=O)O)cc3)NC(=O)[C@H](Cc3ccncc3)NC2=O)cc1` [Example 78] (cyclo([AEF](Ac)[4Pal][Phe(4-COOH)]G[Pro(cis-4-F)][Trp(βS-Me,4-F)][Aib]EW[Aib][Ala(pyrimidin-5-yl)]Q[Dab]G[X14])) was 0.036 nM; that for `C[C@@H](c1c[nH]c2cccc(F)c12)[C@@H]1NC(=O)[C@@H]2C[C@H](F)CN2C(=O)CNC(=O)[C@H](Cc2ccc(C(=O)O)cc2)NC(=O)[C@H](Cc2ccncc2)NC(=O)[C@H](Cc2ccc(-c3ncc(C(=O)O)cn3)cc2)NC(=O)[C@H]2C[C@@H](Cc3ccc(F)cc3)CN2C(=O)CNC(=O)[C@H](CCN)NC(=O)[C@H](CCC(N)=O)NC(=O)[C@H](Cc2ccncc2)NC(=O)C2(CNC2)NC(=O)[C@H](Cc2c[nH]c3ccccc23)NC(=O)[C@H](CCC(=O)O)NC(=O)C(C)(C)NC1=O` [Example 81] (cyclo([Phe(4-(5-CO2H-2-pyrimidyl))][4Pal][Phe(4-COOH)]G[Pro(cis-4-F)][Trp(βS-Me,4-F)][Aib]EW[3Aminoazetidine3carboxyl][4Pal]Q[Dab]G[dPro(4R-Bzl(4-F))])) was 0.049 nM.

These data come from patent US20260242419A1, “A CYCLIC PEPTIDE FOR TRAPPING INTERLEUKIN-1 BETA” (Merck Sharp & Dohme LLC, priority 2023, published 2026).
